Assay results: the CheMixHub viscosity set

Assay: xn = mol fraction of the nth substance listed

CC(=O)OC(C)=O + O
viscosity [mPa·s], 101 kPa
Conditions | x1 = 0.2 | x1 = 0.4 | x1 = 0.45 | x1 = 0.5 | x1 = 0.6 | x1 = 0.8
298.15 K | 2.189 | 1.852 | 1.497 | 1.193 | 1.059 | 0.936
313.15 K | 1.484 | 1.294 | 1.104 | 0.921 | 0.835 | 0.735

NCCO + CCCO
viscosity [mPa·s], 101.3 kPa
Conditions | x1 = 0.0998 | x1 = 0.1999 | x1 = 0.3005 | x1 = 0.4 | x1 = 0.5 | x1 = 0.6 | x1 = 0.7 | x1 = 0.8 | x1 = 0.9
303.15 K | 2.09 | 2.56 | 3.17 | 3.97 | 4.94 | 6.22 | 7.7 | 9.64 | 12
313.15 K | 1.66 | 2 | 2.42 | 2.97 | 3.63 | 4.44 | 5.41 | 6.62 | 8.11
323.15 K | 1.35 | 1.59 | 1.92 | 2.3 | 2.75 | 3.31 | 3.93 | 4.73 | 5.69

C1CCCC1 + CCCCCCCO
101.3 kPa
Conditions | viscosity [mPa·s]
298.15 K, x1 = 0.0352 | 5.482
298.15 K, x1 = 0.0593 | 5.221
298.15 K, x1 = 0.0988 | 4.844
298.15 K, x1 = 0.1481 | 4.446
298.15 K, x1 = 0.2145 | 3.924
298.15 K, x1 = 0.2684 | 3.481
298.15 K, x1 = 0.3065 | 3.175
298.15 K, x1 = 0.3655 | 2.729
298.15 K, x1 = 0.4052 | 2.452
298.15 K, x1 = 0.4333 | 2.255
298.15 K, x1 = 0.4668 | 2.039
298.15 K, x1 = 0.4932 | 1.889
298.15 K, x1 = 0.5131 | 1.773
298.15 K, x1 = 0.5247 | 1.71
298.15 K, x1 = 0.5389 | 1.629
298.15 K, x1 = 0.5545 | 1.546
298.15 K, x1 = 0.5728 | 1.45
298.15 K, x1 = 0.5972 | 1.348
298.15 K, x1 = 0.612 | 1.272
298.15 K, x1 = 0.6459 | 1.141
298.15 K, x1 = 0.6823 | 1.009
298.15 K, x1 = 0.7149 | 0.909
298.15 K, x1 = 0.7429 | 0.819
298.15 K, x1 = 0.7801 | 0.734
298.15 K, x1 = 0.8099 | 0.672
298.15 K, x1 = 0.8367 | 0.622
298.15 K, x1 = 0.876 | 0.559
298.15 K, x1 = 0.9139 | 0.507
298.15 K, x1 = 0.9562 | 0.455
298.15 K, x2 = 0.0123 | 0.422
308.15 K, x1 = 0.0706 | 3.806
308.15 K, x1 = 0.107 | 3.567
308.15 K, x1 = 0.2112 | 2.906
308.15 K, x1 = 0.2927 | 2.434
308.15 K, x1 = 0.3502 | 2.124
308.15 K, x1 = 0.3903 | 1.904
308.15 K, x1 = 0.4235 | 1.762
308.15 K, x1 = 0.4744 | 1.536
308.15 K, x1 = 0.5101 | 1.397
308.15 K, x1 = 0.5124 | 1.388
308.15 K, x1 = 0.5273 | 1.333
308.15 K, x1 = 0.5473 | 1.254
308.15 K, x1 = 0.5733 | 1.164
308.15 K, x1 = 0.5957 | 1.094
308.15 K, x1 = 0.6126 | 1.033
308.15 K, x1 = 0.6337 | 0.973
308.15 K, x1 = 0.6691 | 0.873
308.15 K, x1 = 0.6936 | 0.817
308.15 K, x1 = 0.7266 | 0.741
308.15 K, x1 = 0.7759 | 0.645
308.15 K, x1 = 0.8235 | 0.567
308.15 K, x1 = 0.8612 | 0.513
308.15 K, x1 = 0.9001 | 0.465
308.15 K, x1 = 0.9538 | 0.407
318.15 K, x1 = 0.0663 | 3.159
318.15 K, x1 = 0.1607 | 2.659
318.15 K, x1 = 0.2747 | 2.102
318.15 K, x1 = 0.3487 | 1.774
318.15 K, x1 = 0.4227 | 1.477
318.15 K, x1 = 0.4685 | 1.326
318.15 K, x1 = 0.504 | 1.204
318.15 K, x1 = 0.5407 | 1.097
318.15 K, x1 = 0.5754 | 1.006
318.15 K, x1 = 0.6027 | 0.936
318.15 K, x1 = 0.6281 | 0.877
318.15 K, x1 = 0.6529 | 0.814
318.15 K, x1 = 0.6898 | 0.743
318.15 K, x1 = 0.7214 | 0.681
318.15 K, x1 = 0.7581 | 0.617
318.15 K, x1 = 0.8025 | 0.549
318.15 K, x1 = 0.8554 | 0.475
318.15 K, x1 = 0.9198 | 0.402
318.15 K, x1 = 0.9672 | 0.359

CCC(=O)CC + CCCCOC(C)=O
viscosity [mPa·s], 101 kPa
Conditions | x2 = 0.0808 | x2 = 0.1652 | x2 = 0.2542 | x2 = 0.349 | x2 = 0.4451 | x2 = 0.5459 | x2 = 0.65 | x2 = 0.7613 | x2 = 0.8771
298.15 K | 0.478 | 0.5 | 0.523 | 0.543 | 0.558 | 0.573 | 0.59 | 0.614 | 0.645
303.15 K | 0.445 | 0.464 | 0.485 | 0.5 | 0.513 | 0.526 | 0.541 | 0.562 | 0.589
308.15 K | 0.419 | 0.437 | 0.455 | 0.471 | 0.483 | 0.495 | 0.509 | 0.528 | 0.554
313.15 K | 0.395 | 0.411 | 0.429 | 0.441 | 0.452 | 0.461 | 0.474 | 0.491 | 0.514

CCCCC(CC)C(=O)OCC(COC(=O)C(CC)CCCC)(COC(=O)C(CC)CCCC)COC(=O)C(CC)CCCC (configuration not stated) + CCCCC(=O)OCC(COC(=O)CCCC)(COC(=O)CCCC)COC(=O)CCCC
Conditions | viscosity [mPa·s]
313.15 K, 100 kPa, x1 = 0.6911 | 32.3

CCOC(=O)CC#N + N#CCc1ccccc1
viscosity [mPa·s], 101 kPa
Conditions | x2 = 0.1383 | x2 = 0.4842 | x2 = 0.8426
303.15 K | 2.135 | 1.995 | –
313.15 K | – | – | 1.535

CCCCCCCCCCCCCC[P+](CCCCCC)(CCCCCC)CCCCCC.[O-]c1ccccc1 + O=C=O
Conditions | viscosity [mPa·s]
298.15 K, 100 kPa, x2 = 0.5 | 368

Nc1ccccc1[N+](=O)[O-] + ClC(Cl)(Cl)Cl
viscosity [mPa·s], 101 kPa
Conditions | 303.15 K | 308.15 K | 313.15 K | 318.15 K | 323.15 K
x1 = 0.02174 | 0.8952 | 0.8298 | 0.7841 | 0.7321 | 0.6886
x1 = 0.08489 | – | 1 | 0.9361 | 0.874 | 0.8093

C1CCCC1 + CCC(C)O
101 kPa
Conditions | viscosity [mPa·s]
298.15 K, x1 = 0.0967 | 2.238
298.15 K, x1 = 0.1932 | 1.702
298.15 K, x1 = 0.2298 | 1.578
298.15 K, x1 = 0.2524 | 1.454
298.15 K, x1 = 0.3078 | 1.253
298.15 K, x1 = 0.3627 | 1.081
298.15 K, x1 = 0.4215 | 0.936
298.15 K, x1 = 0.5078 | 0.7825
298.15 K, x1 = 0.5772 | 0.6742
298.15 K, x1 = 0.7238 | 0.5339
298.15 K, x1 = 0.8256 | 0.4728
298.15 K, x1 = 0.9298 | 0.4297
308.15 K, x1 = 0.0075 | 2.095
308.15 K, x1 = 0.047 | 1.917
308.15 K, x1 = 0.0598 | 1.7
308.15 K, x1 = 0.0917 | 1.552
308.15 K, x1 = 0.107 | 1.509
308.15 K, x1 = 0.2217 | 1.298
308.15 K, x1 = 0.2626 | 1.177
308.15 K, x1 = 0.3099 | 1.049
308.15 K, x1 = 0.3653 | 0.8998
308.15 K, x1 = 0.4219 | 0.8068
308.15 K, x1 = 0.496 | 0.6842
308.15 K, x1 = 0.5716 | 0.5943
308.15 K, x1 = 0.6554 | 0.5084
308.15 K, x1 = 0.7457 | 0.4481
308.15 K, x1 = 0.845 | 0.4249
308.15 K, x1 = 0.9255 | 0.3819
308.15 K, x1 = 0.9753 | 0.3779

C1CCCC1 + CCCCO
101 kPa
Conditions | viscosity [mPa·s]
298.15 K, x1 = 0.0281 | 2.401
298.15 K, x1 = 0.0729 | 2.23
298.15 K, x1 = 0.1366 | 1.972
298.15 K, x1 = 0.2131 | 1.703
298.15 K, x1 = 0.268 | 1.533
298.15 K, x1 = 0.2928 | 1.448
298.15 K, x1 = 0.3216 | 1.358
298.15 K, x1 = 0.3809 | 1.205
298.15 K, x1 = 0.4426 | 1.035
298.15 K, x1 = 0.5285 | 0.8835
298.15 K, x1 = 0.5981 | 0.7551
298.15 K, x1 = 0.6858 | 0.6361
298.15 K, x1 = 0.7617 | 0.5622
298.15 K, x1 = 0.7948 | 0.5316
298.15 K, x1 = 0.8094 | 0.5193
298.15 K, x1 = 0.8797 | 0.4629
308.15 K, x1 = 0.004 | 1.958
308.15 K, x1 = 0.1227 | 1.614
308.15 K, x1 = 0.1427 | 1.583
308.15 K, x1 = 0.1774 | 1.556
308.15 K, x1 = 0.2185 | 1.381
308.15 K, x1 = 0.2585 | 1.358
308.15 K, x1 = 0.3367 | 1.164
308.15 K, x1 = 0.421 | 1.009
308.15 K, x1 = 0.494 | 0.8822
308.15 K, x1 = 0.5979 | 0.6995
308.15 K, x1 = 0.7214 | 0.5435
308.15 K, x1 = 0.8382 | 0.4404
308.15 K, x1 = 0.9315 | 0.3813
308.15 K, x1 = 0.9658 | 0.3641
308.15 K, x1 = 0.9781 | 0.3599
